Results on 15 compounds are retold here after ChEMBL document CHEMBL1134801, “Dibasic inhibitors of human mast cell tryptase. Part 3: identification of a series of potent and selective inhibitors containing the benzamidine functionality” (Bioorg Med Chem Lett, 2001).

One data set has as its target Plasminogen (Homo sapiens, UniProt P00747). Nature of the data set: Inhibition plasmin in human mast cells. In kind it is cell-based.
The target of the next data set is Prothrombin (Homo sapiens, UniProt P00734). Nature of the data set: Inhibition of thrombin in human mast cells. The class given is cell-based.
A further data set concerns the target Trypsin (Homo sapiens, UniProt P07477+P07478+P35030). The data set is described as follows: Inhibition of trypsin in human mast cells. In kind it is cell-based.
The next data set deals with Tryptase (Homo sapiens, UniProt Q9BZJ3+Q15661+Q9NRR2). Nature of the data set: Inhibition of Tryptase in human mast cells. In kind it is cell-based.
Data set [1] in a line: Michaelis-Menten constant was determined for the compound after incubation with plasma amine oxidase. In kind it is ADME, cell-free.

Structures are written as SMILES. Bounds are passed on as bounds.

In general, Ki refers to the equilibrium dissociation constant of an inhibitor or competing ligand from its target. Read a low Ki as higher affinity.

Chain of Plasminogen (P00747 97-580 limits assumed): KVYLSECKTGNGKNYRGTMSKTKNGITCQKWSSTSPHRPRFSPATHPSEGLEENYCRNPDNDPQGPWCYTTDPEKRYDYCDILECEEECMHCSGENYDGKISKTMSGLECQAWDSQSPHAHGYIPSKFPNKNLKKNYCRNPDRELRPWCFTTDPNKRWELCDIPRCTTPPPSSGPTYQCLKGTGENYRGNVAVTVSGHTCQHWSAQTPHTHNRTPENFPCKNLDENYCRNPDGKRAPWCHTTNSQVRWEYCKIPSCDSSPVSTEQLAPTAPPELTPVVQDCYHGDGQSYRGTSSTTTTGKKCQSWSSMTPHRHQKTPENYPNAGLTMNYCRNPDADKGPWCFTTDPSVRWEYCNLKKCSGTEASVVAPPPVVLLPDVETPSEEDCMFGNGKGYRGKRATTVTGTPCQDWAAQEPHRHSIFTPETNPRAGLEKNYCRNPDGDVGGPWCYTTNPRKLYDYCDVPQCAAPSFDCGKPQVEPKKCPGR
Chain of Plasminogen (P00747 581-810 limits assumed): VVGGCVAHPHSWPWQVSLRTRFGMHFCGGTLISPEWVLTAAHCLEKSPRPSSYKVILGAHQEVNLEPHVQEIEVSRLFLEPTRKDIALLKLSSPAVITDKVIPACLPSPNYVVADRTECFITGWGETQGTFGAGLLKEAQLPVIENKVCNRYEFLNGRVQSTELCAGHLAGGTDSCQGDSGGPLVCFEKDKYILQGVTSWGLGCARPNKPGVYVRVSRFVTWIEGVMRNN

For the compound `NCC1CCN(C(=O)NCCCCNC(=O)OCc2ccc(COC(=O)NCCCCNC(=O)N3CCC(CN)CC3)cc2)CC1`, the Ki at Plasminogen is above 1000 µM; at Prothrombin it was above 1000 µM; on Trypsin, above 1000 µM; at Tryptase, 0.112 µM.
For `N=C(N)c1ccc(NC(=O)CC2CCN(C(=O)O[C@H]3CCC[C@@H](OC(=O)N4CCN(C(=O)NCCC5CCNCC5)CC4)CCC3)CC2)cc1`, the Ki came out at 293 µM at Plasminogen, 52.9 µM at Prothrombin, 21.1 µM at Trypsin and 0.0089 µM at Tryptase.
Take `N=C(N)c1ccc(C(=O)NCC2CCN(C(=O)O[C@H]3CCC[C@@H](OC(=O)N4CCN(C(=O)CCCC5CCNCC5)CC4)CCC3)CC2)cc1`: the Ki on Plasminogen was 320 µM; at Prothrombin it was 31.9 µM; at Trypsin, 37.4 µM; on Tryptase, 0.0164 µM.
As to `NCC1CCN(C(=O)NCC2CCN(C(=O)OCc3ccc(COC(=O)N4CCC(CNC(=O)N5CCC(CN)CC5)CC4)cc3)CC2)CC1`, the “Vmax / Km” value in data set [1] is listed as 1870. The Ki at Plasminogen was above 1000 µM; at Prothrombin, above 1000 µM; on Trypsin, 515 µM; on Tryptase, 0.024 µM.
As for `N=C(N)c1ccc(C(=O)NCC2CCN(C(=O)OCc3ccc(COC(=O)N4CCC(CNC(=O)c5ccc(C(=N)N)cc5)CC4)cc3)CC2)cc1`, the Ki on Plasminogen worked out at 0.006 µM; on Prothrombin, 42.2 µM; at Trypsin, 4.4 µM.
Consider `N=C(N)N1CCC(CNC(=O)CNC(=O)OCc2ccc(COC(=O)NCC(=O)NCC3CCN(C(=N)N)CC3)cc2)CC1`, for which the Ki at Plasminogen was above 1000 µM; on Prothrombin, 386 µM; at Trypsin it was 466 µM; at Tryptase, 0.155 µM.
For `N=C(N)c1ccc(CNC(=O)N2CCN(C(=O)O[C@H]3CCC[C@@H](OC(=O)N4CCN(C(=O)NCc5ccc(C(=N)N)cc5)CC4)CCC3)CC2)cc1`, the results for the Ki on Trypsin and on Tryptase were 25 µM and 0.0087 µM, respectively.
Regarding `N=C(N)c1ccc(CC(=O)N2CCN(C(=O)O[C@H]3CCC[C@@H](OC(=O)N4CCN(C(=O)NCCC5CCNCC5)CC4)CCC3)CC2)cc1`, the Ki was above 1000 µM at Plasminogen, 94.4 µM on Prothrombin, 63.1 µM at Trypsin and 0.0067 µM at Tryptase.
`N=C(N)c1ccc(CNC(=O)N2CCN(C(=O)O[C@H]3CCC[C@@H](OC(=O)N4CCN(C(=O)NCCC5CCNCC5)CC4)CCC3)CC2)cc1`: the inhibitory constant (Ki) at Plasminogen is 287 µM; at Prothrombin it was 111 µM; at Trypsin it was 47.2 µM; on Tryptase, 0.00091 µM.
`N=C(N)N1CCC(CCNC(=O)CNC(=O)OCc2ccc(COC(=O)NCC(=O)NCCC3CCN(C(=N)N)CC3)cc2)CC1`: the Ki is above 1000 µM at Plasminogen, 423 µM at Prothrombin, above 1000 µM at Trypsin and 0.11 µM on Tryptase.
In the case of `N=C(N)c1ccc(S(=O)(=O)NCC2CCN(C(=O)O[C@H]3CCC[C@@H](OC(=O)N4CCN(C(=O)NCCC5CCNCC5)CC4)CCC3)CC2)cc1`, the Ki is above 1000 µM on Plasminogen, above 1000 µM on Prothrombin, 16.8 µM at Trypsin and 0.028 µM at Tryptase.
For the compound `COC(=O)NC(=N)c1ccc(CNC(=O)N2CCN(C(=O)O[C@H]3CCC[C@@H](OC(=O)N4CCN(C(=O)NCCC5CCNCC5)CC4)CCC3)CC2)cc1`, the inhibitory constant (Ki) was above 1000 µM on Plasminogen, 561 µM at Prothrombin, 554 µM at Trypsin and 0.0406 µM at Tryptase.
For `N=C(N)c1ccc(CNC(=O)N2CCN(C(=O)O[C@H]3CCC[C@@H](OC(=O)N4CCN(C(=O)CCCC5CCNCC5)CC4)CCC3)CC2)cc1`, in that order: 310 µM, 102 µM, 52.1 µM and 0.00112 µM.
On to `N=C(N)c1ccc(C(=O)NCC2CCN(C(=O)O[C@H]3CCC[C@@H](OC(=O)N4CCN(C(=O)NCCC5CCNCC5)CC4)CCC3)CC2)cc1`, for which the inhibition constant Ki stood at 279 µM on Plasminogen, 41.2 µM on Prothrombin, 38.8 µM on Trypsin and 0.016 µM on Tryptase.
Consider `N=C(N)c1ccc(C(=O)NCC2CCN(C(=O)O[C@H]3CCC[C@@H](OC(=O)N4CCC(CNC(=O)c5ccc(C(=N)N)cc5)CC4)CCC3)CC2)cc1`, for which the Ki at Plasminogen stood at 62.2 µM; on Prothrombin, 20.8 µM; at Trypsin, 4.67 µM; at Tryptase it was 0.00085 µM.
